Values of other authors as cited in patent publication EP1362518A1, “Food product providing sustained blood levels of exogenous substances” (NESTEC S.A., priority 2002, dated 2003).

What was measured:
dogs = settings: 100mg/kg/d (caffeine/body weight/day) consumed for more than 3 days
[1] = not given; remark: listed apart in the source

For `Cn1c(=O)c2c(ncn2C)n(C)c1=O` [caffeine], the half-life of caffeine (adults) is given as 3 to 7 h, the “time of peak in caffeine level in blood” value (after consumption of a cup of coffee) is given as “about an hour” and the death (dogs) is given as “death can occur”. For the same compound, the “threshold value for stimulation” value ([1]; in vivo) was “about 2 mg/l blood plasma”, the “threshold value of stimulation” value ([1]; in vivo) was “about 2 mg/l plasma” and the “upper end of the desired range” value ([1]; side effects above this range) was “about 20 mg/l blood plasma”.
